# Test results reported in US20110207926A1, “NOVEL DIHYDROTRIAZINE DERIVATIVE” (HAMARI CHEMICALS, LTD., priority 2008, published 2011).
# Where two headings read alike, the source gives them in different places.
# Columns and labels:
# [1] = Water solubility test (Japanese Pharmacopoeia solubility test method); assay type: physicochemical; conditions: 20±5° C., dissolution in 30 min; for evaluation (water solubility): criteria of Table 9
# Method: According to the Japanese Pharmacopoeia solubility test method, the compounds of Examples 1 and 7 of the present invention and the corresponding N-methyl unsubstituted compounds were examined for water solubility. To be specific, a test substance was powderized, placed in water and the mixture was vigorously shaken for 30 sec every 5 min at 20±5° C. The solubility was evaluated based on the degree of dissolution in 30 min by reference to the following Table 9.
# [2] = tested on: S. aureus ATCC 6538; assay: Bactericidal activity test (MBC measurement); assay type: cell-based, Staphylococcus aureus
# Method: (§1) Each strain was cultured in Trypticase Soy agar medium for 18 to 20 hr, suspended in 0.1% peptone saline, and prepared to OD 600 nm, 1.0 McFarland. The suspension was further diluted with 0.1% peptone saline to give a test bacteria solution (targeted value; 2×10^7 CFU/mL).
# (§2) At 0.5, 1 and 3 min from the start of the reaction, a part of the reaction mixture was sampled and mixed with an equal amount of a neutralizing agent (10% Tween 80, 3% lecithin/aqueous solution) to terminate the bactericidal reaction. The reaction mixture was inoculated to a 96 well microplate dispensed with 180 μL of Tripticase Soy liquid medium in advance, and statically cultured at 37° C. for 20 to 24 hr. Thereafter, the presence or absence of growth was visually evaluated, and the minimum concentration at which growth was not observed was taken as the minimal bactericidal concentration (MBC value) of each action time. The numerical values in the Tables show MBC, the unit is μg/mL, S. aureus means Staphylococcus aureus, MRSA means methicillin-resistant Staphylococcus aureus, E. coli means Escherichia coli, and P. aeruginosa means Pseudomonas aeruginosa.
# [3] = tested on: MRSA ATCC 33591; assay: Bactericidal activity test (MBC measurement); assay type: cell-based, methicillin-resistant Staphylococcus aureus
# Method: as §1, §2
# [4] = tested on: E. coli ATCC 25922; assay: Bactericidal activity test (MBC measurement); assay type: cell-based, Escherichia coli
# Method: as §1, §2
# [5] = tested on: P. aeruginosa ATCC 27853; assay: Bactericidal activity test (MBC measurement); assay type: cell-based, Pseudomonas aeruginosa
# Method: as §1, §2
# [6] = tested on: P. aeruginosa PAO-1; assay: Bactericidal activity test (MBC measurement); assay type: cell-based, Pseudomonas aeruginosa
# Method: as §1, §2
# [7] = Skin sensitivity test, LLNA-BrdU method (lymph node weight); assay type: in vivo; conditions: 5 w/v % in acetone/olive oil 4:1, transdermal to auricle once a day for 3 days, mice
# Method: For application of an external bactericidal/disinfectant agent to the skin, the sensitivity (allergenicity) is desirably as small as possible. […] The sensitivity was evaluated by a Local lymph node assay (LLNA) method using Bromodeoxyuridine (BrdU). In this test, measurement of the amount of BrdU uptaken by the lymph node using an ELISA kit was not performed, and the evaluation was based solely on the weight increase of the lymph node.
# 8-Week-old female CBA/JN Crlj mice were grouped (3 per group) according to the adequate strafication method based on the body weight (about 20 g) on the first day of administration. A test substance was prepared to 5 w/v % for each test substance by using a mixed solution of acetone and olive oil (v/v=4:1, A00). This was repeatedly administered transdermally to the auricle of the mice at 25 μL/auricle (50 for both auricles) once a day for 3 days. Two days after the final administration, BrdU 10 mg/mL (0.5 mL/mouse) was intraperitoneally administered. Three days after the final transdermal administration (next day of BrdU administration), carbon dioxide was given by inhalation to a comfortable death, and the auricle lymph node was isolated and the weight thereof was measured.
# [8] = Staphylococcus aureus, ATCC6538, 0.5 min, S. aureus ATCC 6538, action time 0.5 min, read-out: MBC
# [9] = Staphylococcus aureus, ATCC6538, 1 min, S. aureus ATCC 6538, action time 1 min, read-out: MBC
# [10] = Staphylococcus aureus, ATCC6538, 0.05 h, S. aureus ATCC 6538, action time 3 min, read-out: MBC
# [11] = Staphylococcus aureus, 0.5 min, MRSA ATCC 33591, action time 0.5 min, read-out: MBC
# [12] = Staphylococcus aureus, 1 min, MRSA ATCC 33591, action time 1 min, read-out: MBC
# [13] = Staphylococcus aureus, 0.05 h, MRSA ATCC 33591, action time 3 min, read-out: MBC
# [14] = Escherichia coli, ATCC25922, 0.5 min, E. coli ATCC 25922, action time 0.5 min, read-out: MBC
# [15] = Escherichia coli, ATCC25922, 1 min, E. coli ATCC 25922, action time 1 min, read-out: MBC
# [16] = Escherichia coli, ATCC25922, 0.05 h, E. coli ATCC 25922, action time 3 min, read-out: MBC
# [17] = Pseudomonas aeruginosa, ATCC27853, 0.5 min, P. aeruginosa ATCC 27853, action time 0.5 min, read-out: MBC
# [18] = Pseudomonas aeruginosa, ATCC27853, 1 min, P. aeruginosa ATCC 27853, action time 1 min, read-out: MBC
# [19] = Pseudomonas aeruginosa, ATCC27853, 0.05 h, P. aeruginosa ATCC 27853, action time 3 min, read-out: MBC
# [20] = Pseudomonas aeruginosa, PAO1, 0.5 min, P. aeruginosa PAO-1, action time 0.5 min, read-out: MBC
# [21] = Pseudomonas aeruginosa, PAO1, 1 min, P. aeruginosa PAO-1, action time 1 min, read-out: MBC
# [22] = Pseudomonas aeruginosa, PAO1, 0.05 h, P. aeruginosa PAO-1, action time 3 min, read-out: MBC
structure (smiles),measurement,setting,value
"CCCCCCCCNC1=NC(C)(C)NC(NCc2ccc(Cl)cc2)=N1 [Comp. Ex. 1, reference compound]",water (mL) to dissolve 1 g,[1],110 mL
same,evaluation (water solubility),[1],"slightly soluble (not less than 100 mL less than 1,000 mL)"
"CCCCCCCCNC1=NC(C)(C)NC(NCc2ccc(C)cc2)=N1 [Comp. Ex. 2, reference compound]",water (mL) to dissolve 1 g,[1],50 mL
same,evaluation (water solubility),[1],sparingly soluble (not less than 30 mL less than 100 mL)
"CCCCCCCCN(C)C1=NC(C)(C)NC(NCc2ccc(Cl)cc2)=N1 [Example 1, N^4-octyl-N^4-methyl-1,6-dihydro-6,6-dimethyl-N^2— (4-chlorobenzyl)-1,3,5-triazine-2,4-diamine acetate]",MBC,[2]; [8],50 µg/mL
same,MBC,[2]; [9],12 µg/mL
same,MBC,[2]; [10],6.25 µg/mL
same,MBC,[3]; [11],50 µg/mL
same,MBC,[3]; [12],25 µg/mL
same,MBC,[3]; [13],12.5 µg/mL
same,MBC,[4]; [14],12.5 µg/mL
same,MBC,[4]; [15],12.5 µg/mL
same,MBC,[4]; [16],12.5 µg/mL
same,MBC,[5]; [17],12.5 µg/mL
same,MBC,[5]; [18],12.5 µg/mL
same,MBC,[5]; [19],12.5 µg/mL
same,MBC,[6]; [20],12.5 µg/mL
same,MBC,[6]; [21],12.5 µg/mL
same,MBC,[6]; [22],12.5 µg/mL
same,water (mL) to dissolve 1 g,[1],<0.5 mL
same,evaluation (water solubility),[1],very soluble (less than 1 mL)
"CCCCCCCCNC1=NC(C)(C)NC(N(C)Cc2ccccc2)=N1 [Example 5, N^4-octyl-1,6-dihydro-6,6-dimethyl-N^2-benzyl-N^2-methyl-1,3,5-triazine-2,4-diamine acetate]",MBC,[2]; [8],200 µg/mL
same,MBC,[3]; [11],50 µg/mL
same,MBC,[4]; [14],25 µg/mL
same,MBC,[5]; [17],12.5 µg/mL
same,MBC,[6]; [20],25 µg/mL
same,"SI value (Stimulation index, lymph node weight ratio to solvent group)",[7],0.9
"CCCCCCCCN(C)C1=NC(C)(C)NC(NCc2ccc(C)cc2)=N1 [Example 7, N^4-octyl-N^4-methyl-1,6-dihydro-6,6-dimethyl-N^2-(4-methylbenzyl)-1,3,5-triazine-2,4-diamine acetate]",water (mL) to dissolve 1 g,[1],0.9 mL
same,evaluation (water solubility),[1],very soluble (less than 1 mL)
same,"SI value (Stimulation index, lymph node weight ratio to solvent group)",[7],2.6
"CCCCCCCCN(C)C(=N)/N=C(\N)NCc1ccc(Cl)cc1.Cl [Example 27, N^5-octyl-N^5-methyl-N^1-(4-chlorobenzyl)biguanide hydrochloride]",MBC,[2]; [8],50 µg/mL
same,MBC,[2]; [9],25 µg/mL
same,MBC,[2]; [10],25 µg/mL
same,MBC,[3]; [11],50 µg/mL
same,MBC,[3]; [12],25 µg/mL
same,MBC,[3]; [13],25 µg/mL
same,MBC,[4]; [14],25 µg/mL
same,MBC,[4]; [15],6.25 µg/mL
same,MBC,[4]; [16],6.25 µg/mL
same,MBC,[5]; [17],12.5 µg/mL
same,MBC,[5]; [18],12.5 µg/mL
same,MBC,[5]; [19],6.25 µg/mL
same,MBC,[6]; [20],12.5 µg/mL
same,MBC,[6]; [21],12.5 µg/mL
same,MBC,[6]; [22],12.5 µg/mL
same,"SI value (Stimulation index, lymph node weight ratio to solvent group)",[7],2.4
"CCCCCCCCCCNC(=N)NC(=N)N(C)Cc1ccccc1.Cl.Cl [Example 29, N^5-decyl-N′-methyl-N′-benzyl-biguanide dihydrochloride]",MBC,"[2]; S. aureus ATCC 6538, action time 0.5 min",200 µg/mL
same,MBC,"[2]; S. aureus ATCC 6538, action time 1 min",100 µg/mL
same,MBC,"[2]; S. aureus ATCC 6538, action time 3 min",12.5 µg/mL
same,MBC,"[3]; MRSA ATCC 33591, action time 0.5 min",200 µg/mL
same,MBC,"[3]; MRSA ATCC 33591, action time 1 min",200 µg/mL
same,MBC,"[3]; MRSA ATCC 33591, action time 3 min",50 µg/mL
same,MBC,"[4]; E. coli ATCC 25922, action time 0.5 min",6.25 µg/mL
same,MBC,"[4]; E. coli ATCC 25922, action time 1 min",6.25 µg/mL
same,MBC,"[4]; E. coli ATCC 25922, action time 3 min",6.25 µg/mL
same,MBC,"[5]; P. aeruginosa ATCC 27853, action time 0.5 min",12.5 µg/mL
same,MBC,"[5]; P. aeruginosa ATCC 27853, action time 1 min",12.5 µg/mL
same,MBC,"[5]; P. aeruginosa ATCC 27853, action time 3 min",6.25 µg/mL
same,MBC,"[6]; P. aeruginosa PAO-1, action time 0.5 min",12.5 µg/mL
same,MBC,"[6]; P. aeruginosa PAO-1, action time 1 min",12.5 µg/mL
same,MBC,"[6]; P. aeruginosa PAO-1, action time 3 min",6.25 µg/mL
"CCCCCCCCCNC(=N)NC(=N)N(C)Cc1ccccc1.Cl.Cl [Example 30, N^5-nonyl-N^1-methyl-N^1-benzyl-biguanide dihydrochloride]",MBC,[2]; [8],200 µg/mL
same,MBC,[2]; [9],100 µg/mL
same,MBC,[2]; [10],25 µg/mL
same,MBC,[3]; [11],> 200 µg/mL
same,MBC,[3]; [12],> 100 µg/mL
same,MBC,[3]; [13],25 µg/mL
same,MBC,[4]; [14],12.5 µg/mL
same,MBC,[4]; [15],12.5 µg/mL
same,MBC,[4]; [16],12.5 µg/mL
same,MBC,[5]; [17],6.25 µg/mL
same,MBC,[5]; [18],6.25 µg/mL
same,MBC,[5]; [19],6.25 µg/mL
same,MBC,[6]; [20],12.5 µg/mL
same,MBC,[6]; [21],6.25 µg/mL
same,MBC,[6]; [22],6.25 µg/mL
"CCCCCCCCNC1=NC(C)(C)N=C(NCC2CCCCC2)N1 [Ref. Ex. 3, 4-octylamino-2-cyclohexylmethylamino-1,6-dihydro-6,6-dimethyl-1,3,5-triazine acetate, reference compound]","SI value (Stimulation index, lymph node weight ratio to solvent group)",[7],4.6
"CCCCCCCCNC1=NC(C)(C)NC(Nc2ccccc2)=N1 [Ref. Ex. 4, 1,6-dihydro-6,6-dimethyl-4-octylamino-2-phenylamino-1,3,5-triazine acetate, reference compound]","SI value (Stimulation index, lymph node weight ratio to solvent group)",[7],4.4
"CCCCCCCCNC1=NC(C)(C)N=C(NCc2ccc(C)cc2)N1 [Ref. Ex. 5, 4-octylamino-1,6-dihydro-6,6-dimethyl-2-(4-methylbenzylamino-1,3,5-triazine gluconate, reference compound]","SI value (Stimulation index, lymph node weight ratio to solvent group)",[7],4.4
